# From patent publication US11638424B2, “Mosquito attractant formulations and uses thereof” (priority 2017, dated 2023)
# Key:
# [1] = test system: A. gambiae s.l.; assay: Olfactometer bioassay (larger Y-tube olfactometer / wind tunnel assay); type: in vivo; conditions: larger Y-tube olfactometer, FIG. 2A
# Description: Behavioural experiments were performed using different odour sources with and without pulsed CO2 stimuli in a Plexiglas Y shaped olfactometer (9.5 cm i.d.×length of the central cylinder and two arms: 120/120/120 cm respectively), illuminated from above at 280 lx. A charcoal-filtered and humidified air stream (25±2° C., RH 65±2%) passed through stainless steel mesh screens at 30 cm s^−1 to generate a laminar flow in the olfactometer. Odors were introduced into the air stream of each arm at the downwind end. […] Odor sources consisted of either RBC-based treatments or headspace extracts. RBC-based treatments included RBCs alone, hRBCs, giRBCs or ippRBCs (RBCs supplemented with HMBPP, gametocytes or IPP), as well as RBCs with supernatants from gametocyte-infected RBCs, or RBCs supplemented with the synthetic odour blend. Headspace extracts collected from hRBCs and giRBCs were used. Treatments including RBCs were heated to 37° C. prior to being pumped (150 ml min^−1) into the airstream of each arm separately. The blend and headspace extracts were delivered to each arm via a wick dispenser. Carbon dioxide (Strandmöllen) was introduced into a plume generator that was placed behind the metal screens to create a homogenous-pulsed flow, which was regulated by a stimulus controller (SEC-2/b, Syntech, Löptin Germany). […]
# [2] = test system: human Vγ9Vδ2 T-cells; conditions: cited from earlier work
# [3] = test system: A. gambiae s.l.; conditions: in vivo; cited from earlier work
# [4] = test system: A. gambiae sensu lato; assay: Mosquito fitness after blood feeding (blood meal size, fecundity, survival); type: in vivo; conditions: hRBCs vs RBCs
# Description: Mosquitoes used in this study were from the laboratory colony of A. gambiae sensu lato (Keele line, University of Glasgow), which was produced by balanced interbreeding of four A. gambiae s.s. strains (H. Hurd, et al. Evolution, 59, 2560-2572 (2005)). Larvae were reared under standard insectary conditions (27±1° C., 70% humidity, 12 h light: 12 h dark cycle) and fed on TetraMin fish flakes (Tetra ltd., Germany). Pupae were transferred into holding cages for emergence. Emerged adults were fed ad libitum on 5% glucose solution, supplemented with 0.05% (w/v) 4-aminobenzoic acid (PABA, Sigma-Aldrich), through soaked filters on top of the 2 ml tubes and with soaked filter pads inside cages. Red blood cells (RBCs) were washed with Roswell Park Memorial Institute (RPMI) medium and stored in RPMI at 50% haematocrit at 4° C. until use. To measure the effect of HMBPP on mosquito fitness, RBCs stored in RPMI were centrifuged at 2500×g for 5 min followed by replacement of the medium with AB serum for a final haematocrit of 40%. HMBPP (stock concentration at 4 mM in Nanopure water, stored at −80° C.) was diluted to 10 μM in 1 ml RBC suspension, and the corresponding volume of Nanopure water was added to the control RBCs. All experiments were, unless otherwise stated, conducted on 5-7 days post-emergence female mosquitoes maintained in separated cages (approximately 210 individuals per cohort) and fed RBCs either with or without HMBPP for 30 min. All experiments were performed in triplicates.
# GLMM statistical modelling was used to corroborate the validity of results based on the whole data set by including the effect of replications (experimental blocks), including weighting for multiple replications. In all analyses, the effect of the main experimental effects (e.g. treatment) was investigated while controlling for variation in experimental replication (random variable). For all results, the significance of all explanatory effects were evaluated by using likelihood ratio test (LRT). Analyses were performed using R statistical software. […]
# [5] = test system: A. gambiae sensu lato; assay: Persistency (landing, probing and initiating feeding) within 5 min on cell-free meals; type: in vivo
# Description: (§1) Fifty mosquitoes were isolated in three separate cages (8 cm internal diameter×10 cm in height) covered with netting, and fed on 1 ml of control RBCs, hRBCs or giRBCs, respectively. […] For each group, the number of fully fed mosquitoes compared to unfed controls was immediately recorded. In another set of feeding experiments, serum or a 0.9% physiological saline solution (NaCl, pH 7.4), either with or without 10 μM HMBPP, were offered to mosquitoes during a 5 min feeding window, and the number of fed mosquitoes recorded every minute for each cage separately. In the saline experiment, an additional treatment of 10 μM IPP in NaCl was included.
# [6] = test system: A. gambiae sensu lato; assay: Feeding proportion experiments (90 s on membrane feeder); type: in vivo
# Description: Mosquitoes used in this study were from the laboratory colony of A. gambiae sensu lato (Keele line, University of Glasgow), which was produced by balanced interbreeding of four A. gambiae s.s. strains (H. Hurd, et al. Evolution, 59, 2560-2572 (2005)). Larvae were reared under standard insectary conditions (27±1° C., 70% humidity, 12 h light: 12 h dark cycle) and fed on TetraMin fish flakes (Tetra ltd., Germany). Pupae were transferred into holding cages for emergence. Emerged adults were fed ad libitum on 5% glucose solution, supplemented with 0.05% (w/v) 4-aminobenzoic acid (PABA, Sigma-Aldrich), through soaked filters on top of the 2 ml tubes and with soaked filter pads inside cages. Red blood cells (RBCs) were washed with Roswell Park Memorial Institute (RPMI) medium and stored in RPMI at 50% haematocrit at 4° C. until use. […]
# as §1, with “In the saline experiment, an additional treatment of 10 μM IPP in NaCl was included.” left out
smiles,measurement,setting,value
"C/C(=C\COP(=O)(O)OP(=O)(O)O)CO [HMBPP, (E)-4-hydroxy-3-methyl-but-2-enyl pyrophosphate]",attraction of mosquitoes to supplemented RBCs versus RBCs,[1],could mimic the attraction of mosquitoes to giRBCs
same,activation of human Vγ9Vδ2 T-cells,[2],highly potent activator
same,innate immune responses in A. gambiae s.l.,[3],trigger innate immune responses
same,mosquito fecundity,[4]; FIG. 3A,"Neither mosquito fecundity, nor survival was affected"
same,mosquito survival,[4]; FIG. 3B,"Neither mosquito fecundity, nor survival was affected"
same,size of mosquito blood meals,[4]; FIG. 3C,significantly increased
same,persistency / phagostimulatory effect in physiological salt solution,"[5]; 0.9% NaCl, 10 μM, 5 min, FIG. 1F",generated a similar effect
same,percent persistency within 5 min (females that landed and initiated probing and feeding),"[5]; serum with 10 μM HMBPP (serum alone 20%), FIG. 1E",Approximately 80%
same,proportion of mosquitoes feeding over a range of HMBPP concentrations,"[6]; RBCs supplemented with different concentrations of HMBPP, below 10 μM",substantially lower doses are sufficient to trigger enhanced mosquito feeding
same,proportion of females fed,"[6]; hRBCs (10 μM HMBPP) vs RBCs, 90 s feeding, FIG. 1B",more than doubled
